From patent publication US20240025887A1, “THIENYL AND CYCLOALKYL AMINOPYRIMIDINE COMPOUNDS AS INHIBITORS OF NUAK KINASES, COMPOSITIONS AND USES THEREOF” (Ontario Institute for Cancer Research (OICR), priority 2021, published 2024) come the findings set out here.

For orientation: IC50 means the concentration at which inhibition is half-maximal.

The structures appear in SMILES notation.

What all share (format): biochemical
One test has as its target T1, Aurora A (Homo sapiens, UniProt O14965).
T1 sequence (O14965 1-403): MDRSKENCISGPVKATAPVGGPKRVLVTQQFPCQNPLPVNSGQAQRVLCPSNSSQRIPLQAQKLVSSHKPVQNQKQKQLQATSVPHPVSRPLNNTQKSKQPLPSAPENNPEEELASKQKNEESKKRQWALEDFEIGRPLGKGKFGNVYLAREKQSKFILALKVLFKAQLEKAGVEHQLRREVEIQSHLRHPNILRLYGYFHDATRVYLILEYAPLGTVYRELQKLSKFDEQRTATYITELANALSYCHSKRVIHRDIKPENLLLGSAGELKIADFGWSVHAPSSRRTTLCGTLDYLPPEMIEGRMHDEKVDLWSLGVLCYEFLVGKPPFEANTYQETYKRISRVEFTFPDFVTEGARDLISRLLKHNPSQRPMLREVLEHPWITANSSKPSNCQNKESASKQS
In words: Aurora A counter screen. The conditions noted are these: read-out: AUR-A (IC50). The gist of the method: (§1)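 Radiometric assay with full-length recombinant NUAK2 in 8 mM MOPS pH 7.0, 0.2 mM EDTA, 10 mM magnesium acetate, 300 μM peptide substrate and [33P]-ATP, 40 min at room temperature. Phosphoric acid stop, filter capture, scintillation counting. Aurora A and NUAK1 used as counter screens.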
Background: The purpose of a counterscreen is to sort out artefacts and off-target activity.

Another test concerns the target T2, NUAK1 (Homo sapiens, UniProt O60285).
T2 sequence (O60285 1-661): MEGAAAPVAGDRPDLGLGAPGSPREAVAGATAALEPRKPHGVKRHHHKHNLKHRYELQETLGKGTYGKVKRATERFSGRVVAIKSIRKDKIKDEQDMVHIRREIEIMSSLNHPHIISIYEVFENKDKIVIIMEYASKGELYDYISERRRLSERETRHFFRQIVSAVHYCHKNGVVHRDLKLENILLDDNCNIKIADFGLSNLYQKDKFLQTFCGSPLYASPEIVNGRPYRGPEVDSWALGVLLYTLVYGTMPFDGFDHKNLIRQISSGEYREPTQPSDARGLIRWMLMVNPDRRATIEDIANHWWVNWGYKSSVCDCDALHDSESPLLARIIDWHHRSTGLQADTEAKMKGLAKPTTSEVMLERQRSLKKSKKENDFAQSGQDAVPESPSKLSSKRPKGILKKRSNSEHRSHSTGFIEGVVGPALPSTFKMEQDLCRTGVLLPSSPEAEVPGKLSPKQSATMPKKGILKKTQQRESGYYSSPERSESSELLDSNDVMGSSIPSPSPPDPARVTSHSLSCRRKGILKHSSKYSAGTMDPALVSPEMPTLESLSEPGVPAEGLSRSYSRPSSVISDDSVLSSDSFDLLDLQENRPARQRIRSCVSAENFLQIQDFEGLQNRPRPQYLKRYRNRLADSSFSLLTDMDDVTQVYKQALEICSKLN
The experiment in a line: NUAK1 counter screen. The gist of the method:
as §1

For a further test, the target named is T3, NUAK2 (h) (Homo sapiens, UniProt Q9H093).
T3 construct: This assay was done radiometrically using full-length, recombinant enzyme; purchased Eurofins
T3 sequence (Q9H093 1-628): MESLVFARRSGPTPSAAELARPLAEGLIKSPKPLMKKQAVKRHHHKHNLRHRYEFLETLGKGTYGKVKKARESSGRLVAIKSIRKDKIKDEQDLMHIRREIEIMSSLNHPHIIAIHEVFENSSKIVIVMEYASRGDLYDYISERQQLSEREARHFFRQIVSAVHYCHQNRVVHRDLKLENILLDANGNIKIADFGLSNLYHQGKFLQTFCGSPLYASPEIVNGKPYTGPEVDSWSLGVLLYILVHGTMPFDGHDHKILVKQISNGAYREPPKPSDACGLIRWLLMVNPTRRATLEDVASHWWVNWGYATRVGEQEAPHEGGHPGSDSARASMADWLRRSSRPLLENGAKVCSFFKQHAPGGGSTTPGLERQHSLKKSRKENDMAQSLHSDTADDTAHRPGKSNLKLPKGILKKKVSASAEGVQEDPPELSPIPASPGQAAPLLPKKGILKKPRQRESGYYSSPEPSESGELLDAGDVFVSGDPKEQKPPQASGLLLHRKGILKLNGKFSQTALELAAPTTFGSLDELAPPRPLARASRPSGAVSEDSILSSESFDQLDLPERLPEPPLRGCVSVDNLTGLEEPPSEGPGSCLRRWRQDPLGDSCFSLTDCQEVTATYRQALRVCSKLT
In words: NUAK2 enzymatic assay (radiometric, Eurofins). Conditions: for IC50: radiometric, full-length recombinant enzyme. The gist of the method:
as §1

Take `NC(=O)c1sccc1Nc1nc(Nc2ccc(N3CCOCC3)cc2OC(F)F)ncc1C(F)(F)F` [Compound I-39, 3-((2-((2-(difluoromethoxy)-4-morpholinophenyl)amino)-5-(trifluoromethyl)pyrimidin-4-yl)amino)thiophene-2-carboxamide]: the figures for the IC50 at Aurora A, against NUAK1 and on NUAK2 (h) were 101 to 1000 nM, 11 to 100 nM and 11 to 100 nM, respectively.

For `CN1CCN(C2CCN(c3ccc(Nc4ncc(Cl)c(Nc5ccsc5C(N)=O)n4)c(OC(F)F)c3F)CC2)CC1` [Compound I-40, 3-((5-chloro-2-((2-(difluoromethoxy)-3-fluoro-4-(4-(4-methylpiperazin-1-yl)piperidin-1-yl)phenyl)amino)pyrimidin-4-yl)amino)thiophene-2-carboxamide], the IC50 on Aurora A was above 1000 nM; at NUAK1 it was 101 to 1000 nM; at NUAK2 (h) it was 101 to 1000 nM.

On to `NC(=O)c1sccc1Nc1nc(Nc2ccc(N3CCC(N4CCOCC4)CC3)cc2OC(F)F)ncc1Cl` [Compound I-43, 3-((5-chloro-2-((2-(difluoromethoxy)-4-(4-morpholinopiperidin-1-yl)phenyl)amino)pyrimidin-4-yl)amino)thiophene-2-carboxamide], for which the IC50 at Aurora A lay within 101 to 1000 nM; on NUAK1, 11 to 100 nM; on NUAK2 (h) it was 0.1 to 10 nM.

Consider `NC(=O)c1sccc1Nc1nc(Nc2ccc(N3CCN4CCC[C@@H]4C3)cc2OC(F)F)ncc1Cl` [Compound I-44, (R)-3-((5-chloro-2-((2-(difluoromethoxy)-4-(hexahydropyrrolo[1,2-a]pyrazin-2(1H)-yl)phenyl)amino)pyrimidin-4-yl)amino)thiophene-2-carboxamide], for which the IC50 at Aurora A fell in the range of 101 to 1000 nM; against NUAK1 it was 11 to 100 nM; on NUAK2 (h), 0.1 to 10 nM. In addition, the “AUR-A (IC50, nM)/NUAK2 (IC50, nM)” value at NUAK2 (h) (NUAK2 selectivity over Aurora-A, ratio of IC50s) is 137.

Turning to `NC(=O)c1sccc1Nc1nc(Nc2ccc(N3CCN4CCOC[C@H]4C3)cc2OC(F)F)ncc1Cl` [Compound I-45, (R)-3-((5-chloro-2-((2-(difluoromethoxy)-4-(hexahydropyrazino[2,1-c][1,4]oxazin-8(1H)-yl)phenyl)amino)pyrimidin-4-yl)amino)thiophene-2-carboxamide], the figures for the IC50 on Aurora A, against NUAK1 and on NUAK2 (h) were 101 to 1000 nM, 11 to 100 nM and 11 to 100 nM, respectively.

`CN1CCN(c2ccc(Nc3ncc(Cl)c(Nc4ccsc4C(N)=O)n3)c(C(F)(F)F)c2)CC1` [Compound I-46, 3-((5-chloro-2-((4-(4-methylpiperazin-1-yl)-2-(trifluoromethyl)phenyl)amino)pyrimidin-4-yl)amino)thiophene-2-carboxamide]: the IC50 on Aurora A is above 1000 nM; against NUAK1 it was 11 to 100 nM; on NUAK2 (h) it was 11 to 100 nM.

With `CN(C)C1CCN(c2ccc(Nc3ncc(Cl)c(Nc4ccsc4C(N)=O)n3)c(OC(F)F)c2)CC1` [Compound I-47, 3-((5-chloro-2-((2-(difluoromethoxy)-4-(4-(dimethylamino)piperidin-1-yl)phenyl)amino)pyrimidin-4-yl)amino)thiophene-2-carboxamide], the IC50 lay in the range of 11 to 100 nM on Aurora A, 0.1 to 10 nM at NUAK1 and 11 to 100 nM at NUAK2 (h).

On to `NC(=O)c1sccc1Nc1nc(Nc2ccc(N3CCC(N4CCCC4)CC3)cc2OC(F)F)ncc1Cl` [Compound I-48, 3-((5-chloro-2-((2-(difluoromethoxy)-4-(4-(pyrrolidin-1-yl)piperidin-1-yl)phenyl)amino)pyrimidin-4-yl)amino)thiophene-2-carboxamide], for which the IC50 at Aurora A is 11 to 100 nM; against NUAK1, 0.1 to 10 nM; at NUAK2 (h), 0.1 to 10 nM.

Regarding `NC(=O)c1sccc1Nc1nc(Nc2ccc(N3CCN4CCOC[C@@H]4C3)cc2OC(F)F)ncc1Cl` [Compound I-49, (S)-3-((5-chloro-2-((2-(difluoromethoxy)-4-(hexahydropyrazino[2,1-c][1,4]oxazin-8(1H)-yl)phenyl)amino)pyrimidin-4-yl)amino)thiophene-2-carboxamide], the IC50 on Aurora A lay within 101 to 1000 nM; at NUAK1, 11 to 100 nM; at NUAK2 (h) it was 11 to 100 nM.

`COCCN1CCN(c2ccc(Nc3ncc(Cl)c(Nc4ccsc4C(N)=O)n3)c(OC(F)F)c2)CC1` [Compound I-50, 3-((5-chloro-2-((2-(difluoromethoxy)-4-(4-(2-methoxyethyl)piperazin-1-yl)phenyl)amino)pyrimidin-4-yl)amino)thiophene-2-carboxamide]: the IC50 at Aurora A, at NUAK1 and at NUAK2 (h) was 11 to 100 nM in each case.

For the molecule `CN1CCN(C2CCN(c3ccc(Nc4ncc(Cl)c(Nc5cscc5C(N)=O)n4)c(OC(F)F)c3)CC2)CC1` [Compound I-51, 4-((5-chloro-2-((2-(difluoromethoxy)-4-(4-(4-methylpiperazin-1-yl)piperidin-1-yl)phenyl)amino)pyrimidin-4-yl)amino)thiophene-3-carboxamide], the IC50 on Aurora A was 11 to 100 nM; against NUAK1, 0.1 to 10 nM; on NUAK2 (h), 0.1 to 10 nM.

Turning to `CN1CCC2(CC1)CCN(c1ccc(Nc3ncc(Cl)c(Nc4ccsc4C(N)=O)n3)c(OC(F)F)c1)C2` [Compound I-53, 3-((5-chloro-2-((2-(difluoromethoxy)-4-(8-methyl-2,8-diazaspiro[4.5]decan-2-yl)phenyl)amino)pyrimidin-4-yl)amino)thiophene-2-carboxamide], the values for the IC50 on Aurora A, at NUAK1 and on NUAK2 (h) were 101 to 1000 nM, 11 to 100 nM and 11 to 100 nM, respectively.

Turning to `CN1CCC2(CC1)CCN(c1ccc(Nc3ncc(Cl)c(Nc4ccsc4C(N)=O)n3)c(OC(F)F)c1)CC2` [Compound I-54, 3-((5-chloro-2-((2-(difluoromethoxy)-4-(9-methyl-3,9-diazaspiro[5.5]undecan-3-yl)phenyl)amino)pyrimidin-4-yl)amino)thiophene-2-carboxamide], the IC50 on Aurora A was in the range of 101 to 1000 nM; against NUAK1, 11 to 100 nM; at NUAK2 (h) it was 11 to 100 nM.

As for `CN(C)[C@@H]1CCN(c2ccc(Nc3ncc(Cl)c(Nc4ccsc4C(N)=O)n3)c(OC(F)F)c2)C1` [Compound I-55, (R)-3-((5-chloro-2-((2-(difluoromethoxy)-4-(3-(dimethylamino)pyrrolidin-1-yl)phenyl)amino)pyrimidin-4-yl)amino)thiophene-2-carboxamide], the values for the IC50 at Aurora A, at NUAK1 and on NUAK2 (h) were 101 to 1000 nM, 0.1 to 10 nM and 11 to 100 nM, respectively.

Take `CN(C)[C@H]1CCN(c2ccc(Nc3ncc(Cl)c(Nc4ccsc4C(N)=O)n3)c(OC(F)F)c2)C1` [Compound I-56, (S)-3-((5-chloro-2-((2-(difluoromethoxy)-4-(3-(dimethylamino)pyrrolidin-1-yl)phenyl)amino)pyrimidin-4-yl)amino)thiophene-2-carboxamide]: the values for the IC50 on Aurora A, at NUAK1 and at NUAK2 (h) were 101 to 1000 nM, 0.1 to 10 nM and 11 to 100 nM, respectively.

Take `CN1C[C@@H]2CN(c3ccc(Nc4ncc(Cl)c(Nc5ccsc5C(N)=O)n4)c(OC(F)F)c3)C[C@@H]2C1` [Compound I-57, 3-((5-chloro-2-((2-(difluoromethoxy)-4-((3aR,6aS)-5-methylhexahydropyrrolo[3,4-c]pyrrol-2(1H)-yl)phenyl)amino)pyrimidin-4-yl)amino)thiophene-2-carboxamide]: the IC50 at Aurora A fell in the range of 101 to 1000 nM; at NUAK1, 0.1 to 10 nM; at NUAK2 (h) it was 0.1 to 10 nM.
